From PMC12706802, “Ortho-Hydroxyanilides: Slow-Acting, Selective Histone Deacetylase 1/2 Inhibitors Suitable for Photocaging Applications” (ACS Pharmacology & Translational Science, 2025) come the findings set out here.

Read-outs that look alike come from different tables or passages of the source.

One assay has as its system MV-3 cells. Briefly: MTT cell viability (antiproliferative) assay. The settings on record: for EC50: Homo sapiens, read-out: MV-3 EC50 (MTT); for viability reduction, MV-3 (MTT): at 15 μM, 72 h. It is filed as cell-based, human. The procedure: (§1) To evaluate the cytotoxicity of the selected HDAC inhibitors, compounds were tested for their antiproliferative activity against MV-3 and MDA-MB-231 cells using the MTT assay. […] MTT (3-(4,5-dimethylthiazol-2-yl)-2,5-diphenyltetrazolium bromide; Catalog# A2231; BioChemica, Applichem GmbH, Darmstadt, Germany) was utilized to measure the antiproliferative effect. Depending on the incubation time, 3000 MV-3 cells (72 h), 2000 MV-3 cells (96 h) or 1000 MV-3 cells (120 h) per well were seeded in 96-well plates (Starlab GmbH, Hamburg, Germany) with each well containing 199 μL of volume. […] Next, predilutions of the test compounds were prepared in DMSO. […] Subsequently, cells were treated with 1.0 μL of the dilution series of the test compounds. […] After removing the supernatant, formazan was solubilized in 200.0 μL DMSO. The absorbance was measured at 570 nm with background subtraction at 690 nm using a Multiskan microplate photometer (Thermo Fisher Scientific, Waltham, MA, USA). The obtained data were normalized to PBS, considering 100% viability.

Assay [1] deals with MDA-MB-231 cells. Briefly: MTT cell viability (antiproliferative) assay. It is filed as cell-based. The settings on record: Homo sapiens. The procedure: as §1
For assay [2], the system named is Ac-histone H3 (class I HDACs). In words: Immunoblot analysis of MV-3 cell lysates incl. wash out. Type of assay: cell-based, human. Conditions: for histone H3 acetylation after wash out (immunoblot): MV-3, 5 μM for 48 h, then up to 6 h without inhibitor; for acetylation level of histone H3 (immunoblot): MV-3, 5 μM, 24–72 h, substantial increase after 72 h. How it is done:
The impact on the acetylation levels of the HDAC substrates Ac-histone H3 (class I HDACs) and Ac-α-tubulin (HDAC6) was analyzed by immunoblot analysis.
6 Immunoblot analysis of MV-3 cell lysates. […] Representative images from at least three replicates are shown. DMSO (0.025%) was used as vehicle control and GAPDH as loading control.
After that, cells were treated with a concentration of 5 μM of HDAC inhibitor or vehicle (DMSO) for additional 24 h, 48 h or 72 h. For cell lysis the cells were initially washed with PBS and detached using a scraper. The cells were then centrifuged at 1200 rpm for 4 min at 4 °C, followed by two additional washing steps. After that, the cell pellet was resuspended in 100 μL of freshly prepared lysis buffer and incubated on ice for 30 min with vortexing every 10 min. The lysis buffer consisted of Invitrogen cell extraction buffer (10 mM Tris, pH 7.4, 100 mM NaCl, […], […], 1 mM NaF, 20 mM Na4P2O7, 2 mM Na3VO4, 1% Triton × −100, 10% glycerol, 0.1% SDS, 0.5% deoxycholate; Catalog# FNN0011, Thermo Fisher Scientific Inc., Waltham, MA, USA), supplemented with 0.1 mM PMSF (Catalog# 10837091001, Sigma-Aldrich, St. Louis, MO, USA) and Halt Protease Inhibitor (100×) (Catalog# 78429, Life Technologies GmbH Carlsbad, CA, USA). Finally, the samples were centrifuged at 14,000 rpm and 4 °C for 30 min and the supernatant was collected. Protein quantification was performed by using BCA protein assay reagents (Catalog# 23225, Thermo Fisher Scientific Inc., Waltham, MA, USA). Lysates were mixed with Laemmli sample buffer 2× concentrate (Catalog# S3401-10VL, Sigma-Aldrich, St. Louis, MO, USA) to a protein concentration of 1.25 μg/μL and denatured at 95 °C for 5 min. Subsequently, SDS-PAGE was performed with 2–20% Mini-PROTEAN TGX stain-free gels (Catalog# 456809, Bio-Rad, Hercules, CA, USA) at 200 V for 45 min. Proteins were then transferred to a Trans-Blot Turbo-PVDF membrane (Catalog# 1704156, Bio-Rad, Hercules, CA, USA) with the Trans-Blot Turbo Transfer System (Catalog# 1704150, Bio-Rad, Hercules, CA, USA) at 25 V for 5 min. The membrane was blocked with a solution of 5% milk powder in TBST (Tris-buffered saline-Tween 20 0.2%) for 60 min at room temperature. After three washing cycles for 10 min with TBST, the membrane was incubated with the respective antibody and a mouse anti-GAPDH antibody (Catalog# T0004, Affinity Biosciences, Cincinnati, OH, USA; 1:20,000 dilution) at room temperature for 60 min and 4 °C overnight. […] After washing off the secondary antibody, protein bands were detected via chemiluminescence using Clarity Western ECL substrate (Catalog# 1705061, Bio-Rad, Hercules, CA, USA). […]

The subject of another assay is Ac-α-tubulin (HDAC6). In words: Immunoblot analysis of MV-3 cell lysates. The settings on record: MV-3, 5 μM, 24–72 h. Type of assay: cell-based, human. (In general: Immunoblotting shows a protein as a band on a membrane.)
The subject of assay [3] is MDA-MB-231 cells. In words: Annexin V/PI apoptosis assay. Conditions: MDA-MB-231, 10 μM, 48 h.
Experimental: Cells were stained with annexin V and propidium iodide (PI). (A) Data represents the mean ± SD of at least three individual experiments. Significances were determined by one-way ANOVA followed by Dunnett’s multiple comparisons test and are indicated by asterisks (*P ≤ 0.05, **P ≤ 0.01, ***P ≤ 0.001).
After the incubation period, cells were collected and washed with cell staining buffer (HEPES 0.1 M, NaCl 1.4 M, CaCl2 × 3 H2O 25 mM). […] Data was evaluated with GraphPad Prism 8 (GraphPad Software, San Diego, CA, USA).
For a further assay, the system named is HDACs in MV-3 cells. In words: HDAC whole cell inhibition assay. Conditions: Homo sapiens, MV-3, light or radiation study, 18 h, read-out: whole-cell HDAC inhibition EC50, MV-3.
In a further assay the test system is HDACs in HEK293 cells. In words: HDAC whole cell inhibition assay. Conditions: Homo sapiens, HEK293, read-out: whole-cell HDAC inhibition EC50, HEK293.
Where [4] appears, read: MV-3, light or radiation study, incubation time 120 h, no irradiation.
[5] abbreviates: MDA-MB-231, light or radiation study, incubation time 120 h, no irradiation.
Where [6] appears, read: MDA-MB-231, incubation time 96 h.

Experimental for Ac-α-tubulin (HDAC6): After that, cells were treated with a concentration of 5 μM of HDAC inhibitor or vehicle (DMSO) for additional 24 h, 48 h or 72 h. For cell lysis the cells were initially washed with PBS and detached using a scraper. The cells were then centrifuged at 1200 rpm for 4 min at 4 °C, followed by two additional washing steps. After that, the cell pellet was resuspended in 100 μL of freshly prepared lysis buffer and incubated on ice for 30 min with vortexing every 10 min. […] Finally, the samples were centrifuged at 14,000 rpm and 4 °C for 30 min and the supernatant was collected. […] The membrane was blocked with a solution of 5% milk powder in TBST (Tris-buffered saline-Tween 20 0.2%) for 60 min at room temperature. After three washing cycles for 10 min with TBST, the membrane was incubated with the respective antibody and a mouse anti-GAPDH antibody (Catalog# T0004, Affinity Biosciences, Cincinnati, OH, USA; 1:20,000 dilution) at room temperature for 60 min and 4 °C overnight. […] Membrane was rinsed again three times before applying the secondary antibody for 1.5 h at room temperature.
Experimental for HDACs in HEK293 cells: (§2) Furthermore, we determined the EC50 values in the nontumorigenic cell line HEK293 and in the hematological cancer cell line MM.1S.
(§3) For this purpose, 3-fold serial dilutions of test compounds (DMSO) were prepared and added at a volume of 0.5 μL to the cells. […] MAL was used in a final concentration of 0.3 mM in the respective cell culture medium with 0.5% IGEPAL CA-630 (Catalog# J61055, Alfa Aesar). […] The obtained data were normalized to vehicle treated cells, considering 100% enzyme activity. IC50 values were determined by generating dose–response curves using the four-parameter logistic equation (GraphPad Prism 8.0, San Diego, USA).
Experimental for HDACs in MV-3 cells: as §2, §3

With `CC(=O)Nc1ccc(C(=O)Nc2cc(-c3ccccc3)ccc2O)cc1` [ST13, 4-Acetamido-N-(4-hydroxy-[1,1′-biphenyl]-3-yl)-benzamide], the EC50 (in general, the concentration that produces a half-maximal response) in the assay on MV-3 cells (setting [4]) is 2770 ± 880 nM; in the assay with MV-3 cells (MV-3, incubation time 96 h), 7940 ± 1360 nM; in the assay with MDA-MB-231 cells [1] (setting [5]) it was 4.87 ± 0.86 µM; with MDA-MB-231 cells [1] (setting [6]), 13.9 ± 3.4 µM; in the assay with HDACs in MV-3 cells, 311 ± 47 nM; in the assay with HDACs in HEK293 cells, 333 ± 64 nM. For the same compound, in the assay with MV-3 cells, the “viability reduction, MV-3 (MTT)” value was below 25%. Besides, the “histone H3 acetylation after wash out (immunoblot)” value in assay [2] is on record as “persistent histone H3 acetylation”. In assay [2], the “acetylation level of histone H3 (immunoblot)” value was “hyperacetylation of histone H3”. In addition, in the assay on Ac-α-tubulin (HDAC6), the “acetylation level of α-tubulin (immunoblot)” value is “absence of HDAC6 inhibition”. The “apoptosis induction (annexin V/PI)” value in the assay on MDA-MB-231 cells [3] is “significantly induced apoptosis”.
As to `CC(=O)Nc1ccc(C(=O)Nc2cc(-c3cccs3)ccc2N)cc1` [Cpd-60, reference compound], the EC50 with MV-3 cells (setting [4]) came to 370 ± 40 nM; with MV-3 cells (MV-3, incubation time 96 h), 2340 ± 790 nM; with MDA-MB-231 cells [1] (setting [5]), 0.89 ± 0.25 µM; in the assay with MDA-MB-231 cells [1] (setting [6]), 3.21 ± 1.01 µM; in the assay on HDACs in MV-3 cells, 97 ± 26 nM; in the assay with HDACs in HEK293 cells it was 178 ± 23 nM. The “viability reduction, MV-3 (MTT)” value in the assay with MV-3 cells is on record as below 25%. Besides, the “histone H3 acetylation after wash out (immunoblot)” value in assay [2] is recorded as “persistent histone H3 acetylation”. Besides, in assay [2], the “acetylation level of histone H3 (immunoblot)” value is “hyperacetylation of histone H3”. Also, in the assay with Ac-α-tubulin (HDAC6), the “acetylation level of α-tubulin (immunoblot)” value is “absence of HDAC6 inhibition”. Also, in the assay with MDA-MB-231 cells [3], the “apoptosis induction (annexin V/PI)” value was “significantly induced apoptosis”.
